Results reported in PubChem BioAssay (NCI).
“And” between values parts separate entries of the source, which are not always exact repeats. Identical values can stand only once.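 Briefly, cells in 96-well plates were exposed to five compound concentrations for 48 h, and endpoints were estimated by linear interpolation. Here, GI50 denotes the concentration required for 50% inhibition of growth. TGI: total growth inhibition.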

How the values were obtained:
Assay in all cases: NCI-60 cell line screen, 48 h
HCT-15 colon = tested on: HCT-15 colon
TK-10 renal = tested on: TK-10 renal
EKVX NSCLC = tested on: EKVX NSCLC
OVCAR-8 ovarian = tested on: OVCAR-8 ovarian
A549 NSCLC = tested on: A549 NSCLC
A498 renal = tested on: A498 renal
COLO 205 colon = tested on: COLO 205 colon
PC-3 prostate = tested on: PC-3 prostate
LOX IMVI melanoma = tested on: LOX IMVI melanoma
SK-MEL-5 melanoma = tested on: SK-MEL-5 melanoma
IGROV1 ovarian = tested on: IGROV1 ovarian
NCI/ADR-RES ovarian = tested on: NCI/ADR-RES ovarian
OVCAR-4 ovarian = tested on: OVCAR-4 ovarian
KM12 colon = tested on: KM12 colon
786-0 renal = tested on: 786-0 renal
RXF 393 renal = tested on: RXF 393 renal
SF-295 CNS = tested on: SF-295 CNS
SNB-75 CNS = tested on: SNB-75 CNS
NCI-H226 lung = tested on: NCI-H226 lung
CAKI-1 renal = tested on: CAKI-1 renal
MDA-MB-231 breast = tested on: MDA-MB-231 breast
NCI-H460 lung = tested on: NCI-H460 lung
DU-145 prostate = tested on: DU-145 prostate
MDA-MB-435 = tested on: MDA-MB-435
RPMI-8226 leukemia = tested on: RPMI-8226 leukemia
SF-539 CNS = tested on: SF-539 CNS
UACC-257 melanoma = tested on: UACC-257 melanoma
HS 578T breast = tested on: HS 578T breast
HCT-116 colon = tested on: HCT-116 colon
OVCAR-3 ovarian = tested on: OVCAR-3 ovarian
U251 CNS = tested on: U251 CNS
BT-549 breast = tested on: BT-549 breast
NCI-H23 lung = tested on: NCI-H23 lung
UO-31 renal = tested on: UO-31 renal
K-562 leukemia = tested on: K-562 leukemia
HT29 colon = tested on: HT29 colon
HL-60(TB) leukemia = tested on: HL-60(TB) leukemia
OVCAR-5 ovarian = tested on: OVCAR-5 ovarian
SK-OV-3 ovarian = tested on: SK-OV-3 ovarian
SN12C renal = tested on: SN12C renal
SR leukemia = tested on: SR leukemia
MOLT-4 leukemia = tested on: MOLT-4 leukemia
HCC-2998 colon = tested on: HCC-2998 colon
HOP-92 NSCLC = tested on: HOP-92 NSCLC
MALME-3M melanoma = tested on: MALME-3M melanoma
MCF7 breast = tested on: MCF7 breast
UACC-62 melanoma = tested on: UACC-62 melanoma
SF-268 CNS = tested on: SF-268 CNS
HOP-62 NSCLC = tested on: HOP-62 NSCLC
ACHN renal = tested on: ACHN renal
T-47D breast = tested on: T-47D breast
SW-620 colon = tested on: SW-620 colon
NCI-H522 lung = tested on: NCI-H522 lung
SNB-19 CNS = tested on: SNB-19 CNS
CCRF-CEM leukemia = tested on: CCRF-CEM leukemia
SK-MEL-2 melanoma = tested on: SK-MEL-2 melanoma
SK-MEL-28 melanoma = tested on: SK-MEL-28 melanoma
M14 melanoma = tested on: M14 melanoma

With `CCOc1ccc2nc3cc(N)ccc3c(N)c2c1` the GI50 (HCT-15 colon) was 23.2 µM and 12.1 µM, the TGI (HCT-15 colon) was > 100 µM and 33.7 µM and the GI50 (TK-10 renal) was 20.9 µM and 12.7 µM. For the same molecule, the TGI (TK-10 renal) was 46.8 µM and 34.8 µM, the GI50 (EKVX NSCLC) was 9.76 µM and 7.63 µM and the TGI (EKVX NSCLC) was 36.7 µM and 41.4 µM. For the same molecule, the GI50 (OVCAR-8 ovarian) was 2.68 µM and 2.55 µM, the TGI (OVCAR-8 ovarian) was 15.8 µM and 13.1 µM and the GI50 (A549 NSCLC) was 9.61 µM and 10.9 µM. The TGI (A549 NSCLC) was 28.6 µM and 26.2 µM, the GI50 (A498 renal) was 2.78 µM and 12.7 µM and the TGI (A498 renal) was 29.1 µM and 37.5 µM. The GI50 (COLO 205 colon) was 3 µM and 1.25 µM, the TGI (COLO 205 colon) was 13.4 µM and 4.69 µM and the GI50 (PC-3 prostate) was 3.85 µM and 2.99 µM. The TGI (PC-3 prostate) was 16.1 µM and 12.7 µM, the GI50 (LOX IMVI melanoma) was 4.53 µM and 2.95 µM and the TGI (LOX IMVI melanoma) was 20 µM and 12.4 µM. The GI50 (SK-MEL-5 melanoma) was 3.31 µM and 3.03 µM, the TGI (SK-MEL-5 melanoma) was 13.3 µM and 12.8 µM and the GI50 (IGROV1 ovarian) was 11.5 µM and 15.3 µM. The TGI (IGROV1 ovarian) was 37.3 µM and 45.4 µM, the GI50 (NCI/ADR-RES ovarian) was 9.69 µM and 24.6 µM and the TGI (NCI/ADR-RES ovarian) was greater than 100 µM. The GI50 (OVCAR-4 ovarian) was 2.3 µM and 3.38 µM, the TGI (OVCAR-4 ovarian) was 5.45 µM and 13 µM and the GI50 (KM12 colon) was 2.73 µM and 1.06 µM. For the same molecule, the TGI (KM12 colon) was 17.1 µM and 12.9 µM, the GI50 (786-0 renal) was 2.12 µM and 2.37 µM and the TGI (786-0 renal) was 10.8 µM and 13.1 µM. The GI50 (RXF 393 renal) was 4.97 µM and 2.38 µM, the TGI (RXF 393 renal) was 20.3 µM and 14.6 µM and the GI50 (SF-295 CNS) was 2.09 µM and 1.98 µM. The TGI (SF-295 CNS) was 11.9 µM and 11.4 µM, the GI50 (SNB-75 CNS) was 2.86 µM and 14.1 µM and the TGI (SNB-75 CNS) was 8.78 µM and 28.4 µM. For the same molecule, the GI50 (NCI-H226 lung) was 6.49 µM and 2.55 µM, the TGI (NCI-H226 lung) was 24.2 µM and 13.4 µM and the GI50 (CAKI-1 renal) was 36.1 µM and 22.8 µM. The TGI (CAKI-1 renal) was > 100 µM and 76.3 µM, the GI50 (MDA-MB-231 breast) was 10.2 µM and 4.44 µM and the TGI (MDA-MB-231 breast) was 22.8 µM and 17.6 µM. The GI50 (NCI-H460 lung) was 3.13 µM and 3.9 µM, the TGI (NCI-H460 lung) was 12.6 µM and 15.7 µM and the GI50 (DU-145 prostate) was 5.65 µM and 6.17 µM. The TGI (DU-145 prostate) was 18.3 µM and 19 µM, the GI50 (MDA-MB-435) was 10.6 µM and 7.74 µM and the TGI (MDA-MB-435) was 24.3 µM and 22.4 µM. For the same molecule, the GI50 (RPMI-8226 leukemia) was 15.4 µM and 13.9 µM, the TGI (RPMI-8226 leukemia) was 43.5 µM and 38.4 µM and the GI50 (SF-539 CNS) was 2.66 µM and 1.79 µM. For the same molecule, the TGI (SF-539 CNS) was 13.6 µM and 6.38 µM, the GI50 (UACC-257 melanoma) was 11 µM and 5.67 µM and the TGI (UACC-257 melanoma) was 28.6 µM and 21 µM. For the same molecule, the GI50 (HS 578T breast) was 1.29 µM and 1.03 µM, the TGI (HS 578T breast) was 9.46 µM and 4.83 µM and the GI50 (HCT-116 colon) was 3.62 µM and 3.63 µM. For the same molecule, the TGI (HCT-116 colon) was 15.4 µM and 14.2 µM, the GI50 (OVCAR-3 ovarian) was 2 µM and 1.91 µM and the TGI (OVCAR-3 ovarian) was 7.25 µM and 10.5 µM. The GI50 (U251 CNS) was 0.534 µM and 0.476 µM, the TGI (U251 CNS) was 2.49 µM and 2.09 µM and the GI50 (BT-549 breast) was 2.23 µM and 1.8 µM. The TGI (BT-549 breast) was 8.28 µM and 4.91 µM, the GI50 (NCI-H23 lung) was 2.2 µM and 2.31 µM and the TGI (NCI-H23 lung) was 13.2 µM and 11.3 µM. The GI50 (UO-31 renal) was 3.11 µM and 11.6 µM, the TGI (UO-31 renal) was 27.7 µM and 62.8 µM and the GI50 (K-562 leukemia) was 6.03 µM and 6.26 µM. For the same molecule, the TGI (K-562 leukemia) was 20.2 µM and 25.4 µM, the GI50 (HT29 colon) was 5.77 µM and 5.22 µM and the TGI (HT29 colon) was 19.5 µM and 17.9 µM. For the same molecule, the GI50 (HL-60(TB) leukemia) was 19.8 µM and 20.2 µM, the TGI (HL-60(TB) leukemia) was 42.2 µM and 43.7 µM and the GI50 (OVCAR-5 ovarian) was 16.2 µM and 12.8 µM. For the same molecule, the TGI (OVCAR-5 ovarian) was 39 µM and 25.6 µM, the GI50 (SK-OV-3 ovarian) was 2.67 µM and 3.65 µM and the TGI (SK-OV-3 ovarian) was 14.2 µM and 15.6 µM. For the same molecule, the GI50 (SN12C renal) was 0.661 µM and 0.298 µM, the TGI (SN12C renal) was 6.45 µM and 2.1 µM and the GI50 (SR leukemia) was 2.61 µM and 2.8 µM. The TGI (SR leukemia) was 8.36 µM and 8.48 µM, the GI50 (MOLT-4 leukemia) was 2.99 µM and 3.26 µM and the TGI (MOLT-4 leukemia) was 12.2 µM and 12.4 µM. For the same molecule, the GI50 (HCC-2998 colon) was 3.24 µM and 1.43 µM, the TGI (HCC-2998 colon) was 13.9 µM and 4.72 µM and the GI50 (HOP-92 NSCLC) was 3.4 µM and 2.96 µM. For the same molecule, the TGI (HOP-92 NSCLC) was 16.4 µM and 11.3 µM, the GI50 (MALME-3M melanoma) was 1.22 µM and 1.54 µM and the TGI (MALME-3M melanoma) was 3.23 µM and 3.95 µM. The GI50 (MCF7 breast) was 2.05 µM and 1.66 µM, the TGI (MCF7 breast) was 7.75 µM and 5.5 µM and the GI50 (UACC-62 melanoma) was 4.7 µM and 2.56 µM. For the same molecule, the TGI (UACC-62 melanoma) was 18.5 µM and 12 µM, the GI50 (SF-268 CNS) was 0.385 µM and 0.324 µM and the TGI (SF-268 CNS) was 1.79 µM and 1.68 µM. For the same molecule, the GI50 (HOP-62 NSCLC) was 1.49 µM and 1.58 µM, the TGI (HOP-62 NSCLC) was 6.84 µM and 6.49 µM and the GI50 (ACHN renal) was 7.01 µM and 3.93 µM. The TGI (ACHN renal) was 48.3 µM and 16.6 µM, the GI50 (T-47D breast) was 0.336 µM and 0.385 µM and the TGI (T-47D breast) was 1.57 µM and 2.4 µM. The GI50 (SW-620 colon) was 3.1 µM and 3.08 µM, the TGI (SW-620 colon) was 16.2 µM and 14.4 µM and the GI50 (NCI-H522 lung) was 1.8 µM and 1.69 µM. For the same molecule, the TGI (NCI-H522 lung) was 4.54 µM and 5.1 µM, the GI50 (SNB-19 CNS) was 0.339 µM and 0.574 µM and the TGI (SNB-19 CNS) was 2.04 µM and 5 µM. For the same molecule, the GI50 (CCRF-CEM leukemia) was 3.43 µM and 4.22 µM, the TGI (CCRF-CEM leukemia) was 17.1 µM and 20.9 µM and the GI50 (SK-MEL-2 melanoma) was 2.36 µM and 2.22 µM. The TGI (SK-MEL-2 melanoma) was 6.19 µM and 5.86 µM, the GI50 (SK-MEL-28 melanoma) was 4.4 µM and 4.3 µM and the TGI (SK-MEL-28 melanoma) was 15.7 µM and 15.9 µM. For the same molecule, the GI50 (M14 melanoma) was 8.31 µM and 10.7 µM and the TGI (M14 melanoma) was 26.3 µM and 23.4 µM.
